Test results reported in ChEMBL document CHEMBL1201862, “PubChem BioAssay data set” (2004).
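Briefly, cells in 96-well plates were exposed to five compound concentrations for 48 h, and endpoints were estimated by linear interpolation. At the GI50, growth is halved.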 Activity calls are given as the source filed them. Cut-off read from the data, not from the text of the source: active = GI50 up to about 1.1 µM and inactive = higher.

Assays:
Experiment in all cases: growth of human tumour cells (NCI), 48 h
A549 = tested on: A549
SK-MEL-28 = tested on: SK-MEL-28
CCRF-CEM = tested on: CCRF-CEM
HOP-62 = tested on: HOP-62
HOP-92 = tested on: HOP-92
HT-29 = tested on: HT-29
IGROV-1 = tested on: IGROV-1
SK-MEL-5 = tested on: SK-MEL-5
SF-268 = tested on: SF-268
RPMI-8226 = tested on: RPMI-8226
SN12C = tested on: SN12C
UACC-62 = tested on: UACC-62
K562 = tested on: K562
OVCAR-8 = tested on: OVCAR-8
NCI-H23 = tested on: NCI-H23
COLO 205 = tested on: COLO 205
Malme-3M = tested on: Malme-3M
SK-OV-3 = tested on: SK-OV-3
OVCAR-5 = tested on: OVCAR-5
KM12 = tested on: KM12

Row | Structure (SMILES) | GI50 (A549) | GI50 (SK-MEL-28) | GI50 (CCRF-CEM) | GI50 (HOP-62) | GI50 (HOP-92) | GI50 (HT-29) | GI50 (IGROV-1) | GI50 (SK-MEL-5) | GI50 (SF-268) | GI50 (RPMI-8226) | GI50 (SN12C) | GI50 (UACC-62) | GI50 (K562) | GI50 (OVCAR-8) | GI50 (NCI-H23) | GI50 (COLO 205) | GI50 (Malme-3M) | GI50 (SK-OV-3) | GI50 (OVCAR-5) | GI50 (KM12)
1 | O=C(CCl)NNC1=Nc2ccc(Cl)cc2SC1 | 9.33 µM (inactive) | 2.03 µM (inactive) | 0.612 µM (active) | 17.7 µM (inactive) | 1.63 µM (inactive) | 1.85 µM (inactive) | 1.95 µM (inactive) | 2.36 µM (inactive) | 1.69 µM (inactive) | 1.86 µM (inactive) | 1.95 µM (inactive) | 2.12 µM (inactive) | 1.87 µM (inactive) | 1.4 µM (inactive) | 2.47 µM (inactive) | 1.94 µM (inactive) | 1.69 µM (inactive) | 6.61 µM (inactive) | 2.26 µM (inactive) | 5.02 µM (inactive)
2 | Cc1ccc(NP(=O)(Oc2ccccc2)N(CCCl)CCCl)cc1 (stereo not drawn) | 48.2 µM (inactive) | > 100 µM (inactive) |  | > 100 µM (inactive) | 96.4 µM (inactive) | 26.1 µM (inactive) | 90.8 µM (inactive) | 74.5 µM (inactive) | 80.5 µM (inactive) | 5.5 µM (inactive) | 91 µM (inactive) | > 100 µM (inactive) | > 100 µM (inactive) | 99.1 µM (inactive) | 61.5 µM (inactive) | 31.6 µM (inactive) | 92.7 µM (inactive) | > 100 µM (inactive) | 39.3 µM (inactive) | 91 µM (inactive)
3 | CCCCCn1cc2c3c(cccc31)C1C=C(C)CN(C)[C@@H]1C2.Cc1ccc(C(=O)OC(C(=O)O)C(OC(=O)c2ccc(C)cc2)C(=O)O)cc1 (stereo not drawn) | 9.33 µM (inactive) | 6.93 µM (inactive) | 4.25 µM (inactive) | 12.7 µM (inactive) | 1.6 µM (inactive) | 3.4 µM (inactive) | 8.22 µM (inactive) | 3.06 µM (inactive) | 11 µM (inactive) | 2.64 µM (inactive) | 13 µM (inactive) | 5.25 µM (inactive) | 2.51 µM (inactive) | 12.3 µM (inactive) | 3.37 µM (inactive) | 3.38 µM (inactive) | 2.56 µM (inactive) | 9.93 µM (inactive) | 9.89 µM (inactive) | 5.92 µM (inactive)
4 | O=C1OC2(CC1C1(O)C3CC4CC(C3)CC1C4)C1CC3CC(C1)CC2C3 (stereo not drawn) | 56.4 µM (inactive) | > 100 µM (inactive) | 85.1 µM (inactive) |  |  | > 100 µM (inactive) | 77.6 µM (inactive) | 38.3 µM (inactive) | > 100 µM (inactive) |  | 65.3 µM (inactive) | > 100 µM (inactive) | > 100 µM (inactive) | 35.1 µM (inactive) | > 100 µM (inactive) |  | 58.3 µM (inactive) |  |  | > 100 µM (inactive)
5 | COc1ccc(N2C(Cl)C(=O)C2c2c[nH]c3ccccc23)cc1 (stereo not drawn) | > 100 µM (inactive) | > 100 µM (inactive) | > 100 µM (inactive) | > 100 µM (inactive) | 28.3 µM (inactive) | > 100 µM (inactive) | > 100 µM (inactive) | > 100 µM (inactive) | > 100 µM (inactive) | > 100 µM (inactive) | > 100 µM (inactive) | > 100 µM (inactive) | 94.8 µM (inactive) | > 100 µM (inactive) | > 100 µM (inactive) | > 100 µM (inactive) | 72.6 µM (inactive) | > 100 µM (inactive) | 80.9 µM (inactive) | > 100 µM (inactive)
6 | CN/N=C(\C(=O)Nc1ccc(C)c(C)c1)C(C(=O)OC)c1nc2ccc([N+](=O)[O-])cc2nc1O (stereo not drawn) | > 100 µM (inactive) | > 100 µM (inactive) | > 100 µM (inactive) | > 100 µM (inactive) | > 100 µM (inactive) | > 100 µM (inactive) | > 100 µM (inactive) | > 100 µM (inactive) | > 100 µM (inactive) | 52.7 µM (inactive) | > 100 µM (inactive) | 83.8 µM (inactive) | > 100 µM (inactive) | > 100 µM (inactive) | > 100 µM (inactive) | > 100 µM (inactive) |  | > 100 µM (inactive) | > 100 µM (inactive) | 94.4 µM (inactive)
7 | Cc1ccc([N+](=O)[O-])cc1S(=O)(=O)Nc1ccc(C2=NNC(c3ccccc3O)C2)cc1 (stereo not drawn) | 24.9 µM (inactive) | 26.9 µM (inactive) | 16.6 µM (inactive) | 21.1 µM (inactive) | 79.3 µM (inactive) | 28.8 µM (inactive) | 40.7 µM (inactive) | 19.2 µM (inactive) | 32.1 µM (inactive) | 26.2 µM (inactive) | 23.9 µM (inactive) | 17.6 µM (inactive) | 24.5 µM (inactive) | 56 µM (inactive) | 20.6 µM (inactive) | 24.7 µM (inactive) | 25.9 µM (inactive) | 25.1 µM (inactive) | 32.4 µM (inactive) | 21.6 µM (inactive)
8 | CC1(C(=O)O)CCC(C(=O)O)C(C)(C)O1 (stereo not drawn) | > 100 µM (inactive) | > 100 µM (inactive) | > 100 µM (inactive) | 4.9 µM (inactive) | > 100 µM (inactive) | > 100 µM (inactive) | > 100 µM (inactive) | > 100 µM (inactive) | > 100 µM (inactive) | > 100 µM (inactive) | > 100 µM (inactive) | > 100 µM (inactive) | > 100 µM (inactive) | > 100 µM (inactive) | > 100 µM (inactive) | > 100 µM (inactive) | > 100 µM (inactive) | > 100 µM (inactive) | > 100 µM (inactive) | > 100 µM (inactive)
9 | N#C/C(=C\c1ccncc1)c1csc2ccccc12 | 23.4 µM (inactive) | 34.1 µM (inactive) | 20.4 µM (inactive) | 24.8 µM (inactive) | 20.9 µM (inactive) | 18.6 µM (inactive) | 28 µM (inactive) | 16.8 µM (inactive) | 22.9 µM (inactive) | 18.6 µM (inactive) | 23.6 µM (inactive) | 22.1 µM (inactive) | 20.2 µM (inactive) | 28.5 µM (inactive) | 25.2 µM (inactive) | 18.9 µM (inactive) | 32.7 µM (inactive) | 34.8 µM (inactive) | 42.3 µM (inactive) | 18.5 µM (inactive)
10 | COC(Cc1cc(C(O)(c2ccc(C(C)(C)C)cc2)c2cc(CC(OC)(c3cc(C(OC)(c4ccc(C(C)(C)C)cc4)c4ccc(C(C)(C)C)cc4)c(C)cc3C)c3cc(C(OC)(c4ccc(C(C)(C)C)cc4)c4ccc(C(C)(C)C)cc4)c(C)cc3C)c(C)cc2C)c(C)cc1C)(c1cc(C(OC)(c2ccc(C(C)(C)C)cc2)c2ccc(C(C)(C)C)cc2)c(C)cc1C)c1cc(C(OC)(c2ccc(C(C)(C)C)cc2)c2ccc(C(C)(C)C)cc2)c(C)cc1C | > 75 µM (inactive) | > 75 µM (inactive) | > 75 µM (inactive) | > 75 µM (inactive) | > 75 µM (inactive) | > 75 µM (inactive) | > 75 µM (inactive) | > 75 µM (inactive) | > 75 µM (inactive) |  | > 75 µM (inactive) | > 75 µM (inactive) | > 75 µM (inactive) | > 75 µM (inactive) | > 75 µM (inactive) | > 75 µM (inactive) | > 75 µM (inactive) | > 75 µM (inactive) | > 75 µM (inactive) | 
11 | Cc1ccc2[nH]c3c(C)c4ccncc4c(C)c3c2c1 | 0.966 µM (active) | 1.55 µM (inactive) | 0.242 µM (active) | 1.19 µM (inactive) | 0.553 µM (active) | 1.06 µM (active) | 0.944 µM (active) | 1.6 µM (inactive) | 0.733 µM (active) | 1.09 µM (active) | 0.449 µM (active) | 1.62 µM (inactive) | 0.519 µM (active) | 0.328 µM (active) | 1.24 µM (inactive) | 0.873 µM (active) | 1.9 µM (inactive) | 2.23 µM (inactive) | 1.37 µM (inactive) | 0.614 µM (active)
12 | Cc1nc2c(c(=O)[nH]1)S/C(=C(/C#N)c1nc3ccccc3[nH]1)N2c1ccccc1 | > 100 µM (inactive) | > 100 µM (inactive) | > 100 µM (inactive) | > 100 µM (inactive) | > 100 µM (inactive) | > 100 µM (inactive) | > 100 µM (inactive) | > 100 µM (inactive) | > 100 µM (inactive) | > 100 µM (inactive) | > 100 µM (inactive) | > 100 µM (inactive) | > 100 µM (inactive) | > 100 µM (inactive) | > 100 µM (inactive) | > 100 µM (inactive) | > 100 µM (inactive) | > 100 µM (inactive) | > 100 µM (inactive) | > 100 µM (inactive)
13 | Cc1cc(C)c(S(=O)(=O)N(CCCCCN)OCCCN)c(C)c1 | 19 µM (inactive) | 16.9 µM (inactive) | 20.7 µM (inactive) | 16.5 µM (inactive) | 15.9 µM (inactive) | 14.1 µM (inactive) | 13.9 µM (inactive) | 16.3 µM (inactive) | 20.3 µM (inactive) | 11.7 µM (inactive) | 18.1 µM (inactive) | 17.7 µM (inactive) | 17 µM (inactive) | 18.8 µM (inactive) | 18.3 µM (inactive) | 20.2 µM (inactive) | 23.4 µM (inactive) |  | 17.9 µM (inactive) | 19 µM (inactive)
14 | CC(=O)c1c(-c2ccco2)c(C#N)c(=S)n(C2OC(CO)C(O)C(O)C2O)c1C (stereo not drawn) | > 100 µM (inactive) | 87.7 µM (inactive) | 83.9 µM (inactive) | > 100 µM (inactive) |  | > 100 µM (inactive) | > 100 µM (inactive) | 60.3 µM (inactive) | > 100 µM (inactive) | > 100 µM (inactive) | 71.3 µM (inactive) | 78.9 µM (inactive) | 95.5 µM (inactive) | > 100 µM (inactive) | > 100 µM (inactive) | > 100 µM (inactive) | > 100 µM (inactive) | > 100 µM (inactive) | > 100 µM (inactive) | > 100 µM (inactive)
